Data published in patent publication US20250154219A1, “PEPTIDE ANALOGS” (Adepthera LLC, priority 2017, published 2025).

How the values were obtained:
[1] = target: somatostatin receptor SSTR2 (Homo sapiens, UniProt P30874); details: arrestin assay
Procedure: (§1) The agonistic activities toward SSTR2, NTSR1, and AGTRL1 were assayed with an SSTR2 arrestin assay, an NTSR1 calcium flux assay, and an AGTRL1 CAMP assay (Discoverx Inc.), respectively.
(§2) For the Arrestin assays, PathHunter cell lines (Discoverx Inc.) were expanded from freezer stocks, and seeded in a total volume of 20 μL into white walled, 384-well microplates and incubated at 37 C for the appropriate time prior to testing. For agonist determination, cells were incubated with sample to induce response. […] The microplates were read following signal generation with a PerkinElmer Envision™ instrument for chemiluminescent signal detection.
(§3) The compound activity was analyzed using a CBIS data analysis suite (ChemInnovation, CA). For agonist mode assays, percentage activity was calculated using the following formula:
(§4) % Activity=100%×(mean RLU of test sample−mean RLU of vehicle control)/(mean MAX control ligand−mean RLU of vehicle control).

apelin receptor AGTRL1 = target: T1, apelin receptor AGTRL1 (Homo sapiens, UniProt P35414); assay: AGTRL1 cAMP assay; assay type: cell-based
T1 sequence (P35414 1-380): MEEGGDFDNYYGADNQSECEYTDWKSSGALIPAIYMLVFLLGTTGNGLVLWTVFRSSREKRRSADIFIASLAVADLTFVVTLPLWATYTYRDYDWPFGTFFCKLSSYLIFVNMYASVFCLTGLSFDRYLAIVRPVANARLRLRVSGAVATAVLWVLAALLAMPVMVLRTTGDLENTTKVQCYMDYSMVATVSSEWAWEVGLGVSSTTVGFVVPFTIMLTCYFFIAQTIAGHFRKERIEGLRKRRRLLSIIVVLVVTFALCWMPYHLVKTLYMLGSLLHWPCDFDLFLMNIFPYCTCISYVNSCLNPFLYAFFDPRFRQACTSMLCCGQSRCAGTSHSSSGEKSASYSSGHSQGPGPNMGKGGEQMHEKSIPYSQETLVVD
Procedure: as §1
(§5) For the analysis of Gs-coupled CAMP production, cAMP Hunter cell lines were expanded from freezer stocks, and cells were seeded in a total volume of 20 μL into white walled, 384-well microplates and incubated at 37 C for the appropriate time prior to testing. The CAMP modulation was determined using the DiscoverX HitHunter CAMP XS+ assay. For agonistic activity determination, cells were incubated with sample to induce response. Media was aspirated from cells and replaced with 15 μL 2:1 HBSS/10 mM Hepes: CAMP XS+Ab reagent. […] For Gs-coupled agonistic assays, percentage activity is calculated using the following formula: % Activity=100%×(mean RLU of test sample−mean RLU of vehicle control)/(mean RLU of MAX control−mean RLU of vehicle control).

CLR/RAMP2 receptor [2] = target: T2, CLR/RAMP2 receptor (Homo sapiens, UniProt O60895+Q16602); assay: CLR/RAMP2 arrestin receptor-activation assay (agonist mode); assay type: cell-based; details: for CLR/RAMP2 Max Activity % of positive control: agonist mode, positive control ADM; for EC50: CHO-K1 cells stably expressing CLR/RAMP2, arrestin assay;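 as to all read-outs here: agonist dose-response in recombinant cell lines stably expressing each receptor complex, duplicate wells over 10 threefold dilutions from a top concentration of 1.0 µM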
T2 sequence (Q16602 23-461): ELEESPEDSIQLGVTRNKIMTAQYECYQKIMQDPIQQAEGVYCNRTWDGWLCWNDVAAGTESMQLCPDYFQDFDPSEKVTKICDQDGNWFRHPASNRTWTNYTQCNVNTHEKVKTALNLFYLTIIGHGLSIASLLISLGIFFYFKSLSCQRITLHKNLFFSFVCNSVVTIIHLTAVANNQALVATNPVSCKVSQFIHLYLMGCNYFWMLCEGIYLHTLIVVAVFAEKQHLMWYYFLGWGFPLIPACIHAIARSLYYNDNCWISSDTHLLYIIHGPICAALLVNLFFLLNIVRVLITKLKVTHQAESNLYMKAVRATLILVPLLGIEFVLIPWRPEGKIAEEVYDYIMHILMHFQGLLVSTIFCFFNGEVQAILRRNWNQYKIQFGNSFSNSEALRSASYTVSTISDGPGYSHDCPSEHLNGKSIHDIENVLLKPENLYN
T2 sequence (O60895 43-175): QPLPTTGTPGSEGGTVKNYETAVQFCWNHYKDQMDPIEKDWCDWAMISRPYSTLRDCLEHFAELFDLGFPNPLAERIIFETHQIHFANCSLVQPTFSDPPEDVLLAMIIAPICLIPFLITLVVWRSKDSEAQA
Procedure: (§6) Using a receptor activation assay, the dose-dependent stimulatory response of peptide agonists on a CLR/RAMP1 receptor, a CLR/RAMP2, or a CLR/RAMP3 receptor complex was determined. A cell line carrying the recombinant CLR/RAMP1, CLR/RAMP2, or a CLR/RAMP3 receptor was employed in the assay. Peptide agonist activities were tested, in duplicate, at 10 different concentrations, starting with 1.0 μM and serially diluted 3-fold, in DMSO. […] The CLR/RAMP1 CAMP, CLR/RAMP2 arrestin, and CLR/RAMP3 CAMP assays (DiscoveRx, Fremont, Calif.) were used.
(§7) The pharmacology of superagonistic activity of synthetic analogs was studied in cells that stably express CLR/RAMP1 (1321N1 cells), CLR/RAMP2 (CHO-K1 cells), or CLR/RAMP3 (CHO-K1 cells) receptors.
as §2, §3, §4

CLR/RAMP1 receptor [3] = target: T3, CLR/RAMP1 receptor (Homo sapiens, UniProt O60894+Q16602); assay: CLR/RAMP1 cAMP receptor-activation assay (agonist mode); assay type: cell-based; details: for CLR/RAMP1 Max Activity % of positive control: agonist mode, positive control β-CGRP;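 as to all read-outs here: Dose–response over 10 threefold dilutions from 1.0 µM, run in duplicate, luminescent cAMP detection (RLU), activity scaled between vehicle control (0%) and maximal control (100%)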
T3 sequence (Q16602 23-461): as the sequence (Q16602 23-461) above
T3 sequence (O60894 27-148): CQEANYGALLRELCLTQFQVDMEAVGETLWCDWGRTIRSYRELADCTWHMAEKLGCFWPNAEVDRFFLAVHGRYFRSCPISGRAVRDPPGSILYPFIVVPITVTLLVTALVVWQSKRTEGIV
Procedure: as §6, §7, §5

[4] = target: T4, bradykinin receptor 1 (BDKRB1) (Homo sapiens, UniProt P46663); assay: BDKRB1 calcium flux assay, antagonist mode; assay type: cell-based; details: IC50 column pair
T4 sequence (P46663 1-353): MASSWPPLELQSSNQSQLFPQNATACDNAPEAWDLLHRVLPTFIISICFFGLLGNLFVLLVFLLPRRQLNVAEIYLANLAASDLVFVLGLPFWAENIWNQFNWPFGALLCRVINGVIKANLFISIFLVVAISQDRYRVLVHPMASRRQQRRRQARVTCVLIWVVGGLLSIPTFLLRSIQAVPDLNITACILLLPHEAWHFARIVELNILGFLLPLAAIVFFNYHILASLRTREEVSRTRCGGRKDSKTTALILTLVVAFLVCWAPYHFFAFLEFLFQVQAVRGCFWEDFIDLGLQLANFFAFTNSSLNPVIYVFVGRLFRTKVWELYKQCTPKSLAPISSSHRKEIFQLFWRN
Procedure: (§8) The antagonistic activities toward BDKRB1 and AGTR1 were assayed with a BDKRB1 calcium flux assay and an AGTR1 calcium flux assay (Discoverx Inc.), respectively.
(§9) For antagonist determination, cells were pre-incubated with sample followed by agonist challenge at the EC80 concentration. Intermediate dilution of sample stocks was performed to generate 3× sample in assay buffer. After dye loading, cells were removed from the incubator and 10 μL 3× sample was added. Cells were incubated for 30 minutes at room temperature in the dark to equilibrate plate temperature. […] Compound antagonistic activity was measured on a FLIPR Tetra (MDS), and calcium mobilization was monitored for 2 minutes and 10 μL EC80 agonist in HBSS/20 mM Hepes was added to the cells 5 seconds into the assay.
(§10) For antagonist assays, percentage inhibition is calculated using the following formula: % Inhibition=100%×(1−(mean RFU of test sample−mean RFU of vehicle control)/(mean RFU of EC80 control−mean RFU of vehicle control)).

[5] = target: neurotensin receptor 1 (NTSR1) (Homo sapiens, UniProt P30989); assay: NTSR1 calcium flux assay; assay type: cell-based
Sequence of neurotensin receptor 1 (NTSR1) (P30989 whole entry): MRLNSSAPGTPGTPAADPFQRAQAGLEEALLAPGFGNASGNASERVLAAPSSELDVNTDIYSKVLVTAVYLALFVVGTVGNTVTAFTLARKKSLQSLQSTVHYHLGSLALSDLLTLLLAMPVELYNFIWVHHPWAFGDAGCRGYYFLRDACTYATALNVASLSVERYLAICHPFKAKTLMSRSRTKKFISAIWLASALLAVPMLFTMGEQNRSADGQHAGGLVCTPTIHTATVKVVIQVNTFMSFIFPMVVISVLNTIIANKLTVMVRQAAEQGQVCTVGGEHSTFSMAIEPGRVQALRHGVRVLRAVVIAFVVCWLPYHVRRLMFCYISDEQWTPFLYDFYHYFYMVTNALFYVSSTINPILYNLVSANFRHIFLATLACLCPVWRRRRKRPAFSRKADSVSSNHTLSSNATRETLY
Procedure: The agonistic activities toward SSTR2, NTSR1, and AGTRL1 were assayed with an SSTR2 arrestin assay, an NTSR1 calcium flux assay, and an AGTRL1 CAMP assay (Discoverx Inc.), respectively. The antagonistic activities toward BDKRB1 and AGTR1 were assayed with a BDKRB1 calcium flux assay and an AGTR1 calcium flux assay (Discoverx Inc.), respectively.
For the analysis of calcium flux, cell lines were expanded from freezer stocks and seeded in a total volume of 20 μL into black-walled, clear-bottom, Poly-D-lysine coated 384-well microplates and incubated at 37 C for the appropriate time prior to testing. […] Compound agonist activity was measured on a FLIPR Tetra (MDS), and calcium mobilization was monitored for 2 minutes and 10 μL 4× sample in HBSS/20 mM Hepes was added to the cells 5 seconds into the assay.
The compound activity was analyzed using a CBIS data analysis suite (ChemInnovation, CA), and percentage activity is calculated using the following formula: % Activity=100%×(mean RFU of test sample−mean RFU of vehicle control)/(mean MAX RFU control ligand−mean RFU of vehicle control). For antagonist assays, percentage inhibition is calculated using the following formula: % Inhibition=100%×(1−(mean RFU of test sample−mean RFU of vehicle control)/(mean RFU of EC80 control−mean RFU of vehicle control)).

CLR/RAMP2 receptor [6] = target: T2, CLR/RAMP2 receptor; assay: CLR/RAMP2 arrestin assay, antagonist mode (ADM-stimulated); assay type: cell-based
Procedure: A cell line carrying the recombinant CLR/RAMP1, CLR/RAMP2, or a CLR/RAMP3 receptor was employed in the assay. Peptide agonist activities were tested, in duplicate, at 10 different concentrations, starting with 1.0 μM and serially diluted 3-fold, in DMSO. […] The CLR/RAMP1 CAMP, CLR/RAMP2 arrestin, and CLR/RAMP3 CAMP assays (DiscoveRx, Fremont, Calif.) were used.
For the analysis of antagonistic activity, synthetic analogs were pre-incubated with the cells before adding the reference ligand at its EC80. […] For antagonistic activity determination, cells were pre-incubated with antagonist followed by agonist challenge at the EC80 concentration. […] Then, 5 μL of 6× EC80 agonist in assay buffer was added to the cells and incubated at 37 C or room temperature for 90 or 180 minutes.
The microplates were read following signal generation with a PerkinElmer Envision™ instrument for chemiluminescent signal detection.
% Activity=100%×(mean RLU of test sample−mean RLU of vehicle control)/(mean MAX control ligand−mean RLU of vehicle control). For antagonistic activity assays, percentage inhibition was calculated using the following formula: % Inhibition=100%×(1−(mean RLU of test sample−mean RLU of vehicle control)/(mean RLU of EC80 control−mean RLU of vehicle control)).

CLR/RAMP1 receptor [7] = target: T3, CLR/RAMP1 receptor; assay: CLR/RAMP1 cAMP assay, antagonist mode (CGRP-stimulated); assay type: cell-based; details: for CLR/RAMP1 Max Activity % of positive control (antagonist): antagonist mode
Procedure: (§11) A cell line carrying the recombinant CLR/RAMP1, CLR/RAMP2, or a CLR/RAMP3 receptor was employed in the assay. […] The CLR/RAMP1 CAMP, CLR/RAMP2 arrestin, and CLR/RAMP3 CAMP assays (DiscoveRx, Fremont, Calif.) were used.
(§12) For the analysis of antagonistic activity, synthetic analogs were pre-incubated with the cells before adding the reference ligand at its EC80. […] For the determination of antagonistic activity, cells were pre-incubated with sample followed by agonist challenge at the EC80 concentration. […] After appropriate compound incubation, assay signal was generated through incubation with 20 μL cAMP XS+ED/CL lysis cocktail for one hour followed by incubation with 20 μL cAMP XS+EA reagent for three hours at room temperature. Microplates were read following signal generation with a PerkinElmer Envision™ instrument for chemiluminescent signal detection.
(§13) For the antagonistic activity assay, percentage inhibition is calculated using the following formula: % Inhibition=100%×(1−(mean RLU of test sample−mean RLU of vehicle control)/(mean RLU of EC80 control−mean RLU of vehicle control)).

CLR/RAMP3 receptor [8] = target: T5, CLR/RAMP3 receptor (Homo sapiens, UniProt O60896+Q16602); assay: CLR/RAMP3 cAMP assay, antagonist mode; assay type: cell-based
T5 sequence (Q16602 23-461): as the sequence (Q16602 23-461) above
T5 sequence (O60896 24-148): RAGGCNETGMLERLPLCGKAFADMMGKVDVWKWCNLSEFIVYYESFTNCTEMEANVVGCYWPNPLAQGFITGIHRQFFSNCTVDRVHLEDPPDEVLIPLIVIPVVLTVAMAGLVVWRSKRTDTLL
Procedure: as §11, §12, §13

[9] = target: T6, type 1 angiotensin II receptor AGTR1 (Homo sapiens, UniProt P30556); assay: AGTR1 calcium flux assay, antagonist mode; assay type: cell-based
T6 sequence (P30556 1-359): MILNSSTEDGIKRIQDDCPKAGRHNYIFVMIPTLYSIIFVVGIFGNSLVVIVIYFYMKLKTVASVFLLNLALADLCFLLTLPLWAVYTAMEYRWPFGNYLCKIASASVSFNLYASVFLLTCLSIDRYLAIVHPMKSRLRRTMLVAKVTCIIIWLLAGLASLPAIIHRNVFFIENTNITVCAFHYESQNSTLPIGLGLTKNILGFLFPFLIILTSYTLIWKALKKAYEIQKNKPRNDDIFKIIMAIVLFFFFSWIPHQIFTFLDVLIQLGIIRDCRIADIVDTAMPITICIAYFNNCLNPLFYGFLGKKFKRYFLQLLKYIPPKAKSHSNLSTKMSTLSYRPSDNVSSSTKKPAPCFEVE
Procedure: as §8, §9, §10

CLR/RAMP3 receptor [10] = target: T5, CLR/RAMP3 receptor; assay: CLR/RAMP3 cAMP receptor-activation assay (agonist mode); assay type: cell-based; details: for EC50: CHO-K1 cells stably expressing CLR/RAMP3, cAMP assay; for CLR/RAMP3 Max Activity % of positive control: agonist mode
Procedure: as §6, §7, §5

Sequence of somatostatin receptor SSTR2 (P30874 whole entry): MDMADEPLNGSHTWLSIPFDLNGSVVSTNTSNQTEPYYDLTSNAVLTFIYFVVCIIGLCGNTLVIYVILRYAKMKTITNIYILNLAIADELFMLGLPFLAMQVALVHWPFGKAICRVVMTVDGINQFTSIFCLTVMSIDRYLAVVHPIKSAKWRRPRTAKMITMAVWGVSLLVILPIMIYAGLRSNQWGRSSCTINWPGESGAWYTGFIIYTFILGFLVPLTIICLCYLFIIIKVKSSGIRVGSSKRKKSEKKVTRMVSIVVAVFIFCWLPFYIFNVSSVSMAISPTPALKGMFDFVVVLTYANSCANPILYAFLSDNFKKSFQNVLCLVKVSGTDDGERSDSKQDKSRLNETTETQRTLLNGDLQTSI

Compound | CLR/RAMP2 Max Activity % of positive control (CLR/RAMP2 receptor [2]) | CLR/RAMP1 Max Activity % of positive control (CLR/RAMP1 receptor [3]) | CLR/RAMP2 Max Activity % of positive control (antagonist) (CLR/RAMP2 receptor [6]) | CLR/RAMP1 Max Activity % of positive control (antagonist) (CLR/RAMP1 receptor [7]) | also measured
CSCC[C@H](NC(=O)[C@H](C)NC(=O)[C@@H]1CCCN1C(=O)[C@H](CC(N)=O)NC(=O)[C@H](CO)NC(=O)[C@H](CC(N)=O)NC(=O)[C@H](C)NC(=O)[C@@H](N)CO)C(=O)N[C@@H](C)C(=O)N1CCC[C@H]1C(=O)N[C@@H](CCCNC(=N)N)C(=O)N[C@@H](CCC(=O)O)C(=O)N[C@@H](CCCNC(=N)N)C(=O)N[C@@H](CCCCN)C(=O)N[C@@H](C)C(=O)NCC(=O)N[C@H]1CSSC[C@@H](C(=O)O)NC(=O)[C@H](CO)NC(=O)[C@H]([C@@H](C)O)NC(=O)[C@H](Cc2ccccc2)NC(=O)[C@H]([C@@H](C)O)NC(=O)[C@H](CCCCN)NC(=O)[C@H](Cc2c[nH]c3ccccc23)NC(=O)[C@H](Cc2ccccc2)NC(=O)[C@H](Cc2ccccc2)NC(=O)[C@H](CC(N)=O)NC(=O)[C@H](CCCCN)NC1=O [Somatostatin 28] |  |  |  |  | SSTR2 Max Activity [1]: 102 % of positive controls
(G1p)RPRLSHKGPMPF [Apelin 13, reference compound] |  |  |  |  | AGTRL1 Max Activity (apelin receptor AGTRL1): 100 % of positive controls
(Glp)RPRLSHKGP(Nle)PF-miniPEG-K(PAL)GCRFGTCTVQKLAHQIYQFTDKDVAPRSKISPQGY-NH2 [SEQ ID NO: 228] | 74 % of positive control | 130 % of positive control |  |  | AGTRL1 Max Activity (apelin receptor AGTRL1): 97 % of positive controls
Ace-KRPPGFS-DβNal-I-miniPEG-K(PAL)GCRFGTCTVQKLAHQIYQFTDKDVAPRSKISPQGY-NH2 [SEQ ID NO: 231] | 46 % of positive control | 115 % of positive control |  |  | BDKRB1 Max Activity [4]: 109 % of positive controls
KKPYIL [[Lys 8,9] Neurotensin, reference compound] |  |  |  |  | NTSR1 Max Activity [5]: 100 % of positive controls
PEG20,000-K[PAL]VQKLAHQIYQFTDKDSAPVDPSSPHSY-NH2 [SEQ ID NO: 190] |  |  | 51 % of positive control | 104 % of positive control | 
PEG2000-K[PAL]VQKLAHQIYQFTDKDSAPVDPSSPHSY-NH2 [SEQ ID NO: 191] |  |  | 101 % of positive control | 98 % of positive control | 
PEG5000-K[PAL]VQKLAHQIYQFTDKDSAPVDPSSPHSY-NH2 [SEQ ID NO: 192] |  |  | 104 % of positive control | 101 % of positive control | 
Pal-KVQKLAHQSAPVDPSSPHSY-NH2 [SEQ ID NO: 124] |  |  | 103 % of positive control | 95 % of positive control | CLR/RAMP3 Max Activity % of positive control (antagonist) (CLR/RAMP3 receptor [8]): 102 % of positive control
Pal-KVQKLNFVPTNVGSKAF-NH2 [SEQ ID NO: 142] |  |  | 80 % of positive control | 100 % of positive control | 
Pal-KVQNLSAPVDPSSPHSY-NH2 [SEQ ID NO: 141] |  |  | 14 % of positive control | 43 % of positive control | antagonistic activity toward CLR/RAMP1 and/or CLR/RAMP2, in words (CLR/RAMP1 receptor [7]; CLR/RAMP1 and/or CLR/RAMP2): minimal antagonizing activities
Pyr(glu)-LYENKPRRPYIL-miniPEG-K(Pal)VQKLSAPVDPSSPHSY-NH2 [SEQ ID NO: 224] |  |  | 100 % of positive control | 99 % of positive control | NTSR1 Max Activity [5]: 57 % of positive controls
Sar-RVYVHPA-miniPEG-K(PAL)GCRFGTCTVQKLAHQIYQFTDKDVAPRSKISPQGY-NH2 [SEQ ID NO: 234] | 86 % of positive control | 132 % of positive control |  |  | AGTR1 Max Activity (IC50 column pair) [9]: 104 % of positive controls
miniPEG-K(PAL)GCRFGTCTVQKLAHQIYQFTDKDKDNSAPVDPSSPHSY-NH2 [SEQ ID NO: 28] | 143 % of positive control | 54 % of positive control |  |  | EC50 (CLR/RAMP2 receptor [2]): 0.5 nM; EC50 (CLR/RAMP3 receptor [10]): 0.06 nM; CLR/RAMP3 Max Activity % of positive control (CLR/RAMP3 receptor [10]): 117 % of positive control
miniPEG-K(PAL)GCRFGTCTVQKLAHQIYQFTDKDKDNVAPRSKISPQGY-NH2 [SEQ ID NO: 69] | 147 % of positive control | 70 % of positive control |  |  | CLR/RAMP3 Max Activity % of positive control (CLR/RAMP3 receptor [10]): 127 % of positive control
miniPEG-K(PAL)GCRFGTCTVQKLAHQIYQFTDKDSAPVDPSSPHSY-NH2 [SEQ ID NO: 48] | 77 % of positive control | 78 % of positive control |  |  | EC50 (CLR/RAMP2 receptor [2]): 0.2 nM; EC50 (CLR/RAMP1 receptor [3]; 1321N1 cells stably expressing CLR/RAMP1, cAMP assay): 0.3 nM; EC50 (CLR/RAMP3 receptor [10]): 0.07 nM; CLR/RAMP3 Max Activity % of positive control (CLR/RAMP3 receptor [10]): 141 % of positive control
miniPEG-K(PAL)GCRFGTCTVQKLAHQIYQFTDKDVAPRSKISPQGY-NH2 [SEQ ID NO: 101] | 74 % of positive control | 56 % of positive control |  |  | receptor selectivity of agonists, in words (CLR/RAMP2 receptor [2]; CLR/RAMP2 versus CLR/RAMP1): CLR/RAMP2-selective; CLR/RAMP3 Max Activity % of positive control (CLR/RAMP3 receptor [10]): 129 % of positive control
miniPEG-K(PAL)VQKLSAPVDPSSPHSY-NH2 [SEQ ID NO: 140] |  |  | 90 % of positive control | 100 % of positive control | receptor selectivity of antagonists, in words (CLR/RAMP1 receptor [7]; CLR/RAMP1 versus CLR/RAMP2): CLR/RAMP1-selective
olcegepant [BIBN4096, reference compound] | 0 % of positive control | 105 % of positive control | 0 % of positive control | 105 % of positive control | 
